The text below walks through data of paper PMC9147274 (Pharmaceuticals, 2022).

In data set [1] the test system is MOLT-3. Description: Cytotoxicity toward MOLT-3, XTT assay. The settings on record: for SI (MOLT-3): (IC50 for MRC-5)/(IC50 for MOLT-3); for IC50: Homo sapiens, MOLT-3, XTT, 48 h. Type of data set: cell-based, human. As for the experimental part:
(§1) DMSO was used as vehicle control. […] All experiments were performed in triplicate. […] Cells were exposed for 48 h.
(§2) Table S1 The cytotoxicity of triazole-cored derivatives toward various human lung carcinoma cell lines A549, Thai human cholangiocarcinoma cells HuCCA-1, T-cell acute lymphoblastic leukemia MOLT-3, and acute promyelocytic leukemia HL-60. The inhibitory activities were indicated as IC50 in micromolar scale (µM). The calculated selectivity indices (SI) were reported in square brackets.
(§3) Cancer Cell lines, IC50 (µM), [SI]

Data set [2] concerns HL-60. Kind of data set: Cytotoxicity toward HL-60, XTT assay. Type of data set: cell-based, human. The settings on record: for SI (HL-60): (IC50 for MRC-5)/(IC50 for HL-60); for IC50: Homo sapiens, HL-60, XTT, 48 h. As to the method: as §1, §2, §3
Data set [3] relates to HepG2. Kind of data set: Cytotoxicity toward HepG2, MTT assay. The conditions noted are these: for Cytotoxicity HepG2 Cell Viability at 25 µM: HepG2, 25 µM, MTT; for Cytotoxicity HepG2 Cell Viability at 25 µM / IC50: 72 h; for Selectivity index (SI): IC50 MRC-5 / IC50 HepG2; for IC50: read-out: Cytotoxicity HepG2 IC50, HepG2, MTT.
Protocol: DMSO was used as vehicle control. […] All experiments were performed in triplicate. Data were expressed as the IC50 ± SD. […] Cells were exposed for 48 h.
Data set [4] in a line: Cytotoxicity toward MRC-5, MTT assay. Type of data set: cell-based. The settings on record: human, MRC-5 cells, MRC-5 normal cells. As for the experimental part:
as §1

Data set [5] has as its system A549. Kind of data set: Cytotoxicity toward A549, MTT assay. The settings on record: for IC50: Homo sapiens, A549, MTT, 48 h. The format is cell-based, human. As to the method: as §1, §2, §3
The subject of data set [6] is HuCCA-1. Description: Cytotoxicity toward HuCCA-1, MTT assay. Type of data set: cell-based, human. The conditions noted are these: for IC50: Homo sapiens, HuCC-A1, HuCCA-1, MTT, 48 h. As to the method:
as §1, §2, §3

Structures are written as SMILES. A value given as a limit tells only on which side of the number the result lay.

`O=C(NCc1cn(-c2cccc(C(F)(F)F)c2)nn1)Nc1ccc(Cl)c(C(F)(F)F)c1` [Compound 2x, 1-(4-chloro-3-(trifluoromethyl)phenyl)-3-((1-(3-(trifluoromethyl)phenyl)-1H-1,2,3-triazol-4-yl)methyl)urea] came in with a melting point of 152 to 153 °C. In data set [1], the “SI (MOLT-3)” value worked out at 2.28 and half-maximal inhibition (IC50) required 27.8 ± 4.56 µM. In addition, in data set [2], the “SI (HL-60)” value is 2.19 and the IC50 stood at 28.8 ± 7.46 µM. Further, the “Cytotoxicity HepG2 Cell Viability at 25 µM” value in data set [3] amounted to 81%. Further, the IC50 at 48 h in data set [4] worked out at 63.2 ± 1.57 µM.
As for `O=C(NCc1cn(-c2cccc(O)c2)nn1)Nc1ccc(Cl)c(C(F)(F)F)c1` [Compound 2o], the IC50 in data set [1] was determined as 28.3 ± 4.51 µM; in data set [2], 39.2 ± 2.72 µM.
For `O=C(NCc1cn(-c2ccccc2O)nn1)Nc1ccc(Cl)c(C(F)(F)F)c1` [Compound 2n], the IC50 came to 39.4 ± 3.52 µM in data set [1] and 51.1 ± 1.77 µM in data set [2].
In the case of `O=C(NCc1cn(-c2cccc(F)c2)nn1)Nc1ccc(Cl)c(C(F)(F)F)c1` [Compound 2c], the half-inhibitory concentration (IC50) came to 18.4 ± 0.36 µM in data set [1], 69.4 ± 2.44 µM in data set [5], 44.9 ± 3.84 µM in data set [6] and 34.1 ± 11.3 µM in data set [2]. The compound further returned an IC50 at 48 h in data set [4] of 61.6 ± 3.63 µM.
With `O=C(NCc1cn(-c2ccc(C(F)(F)F)cc2)nn1)Nc1ccc(Cl)c(C(F)(F)F)c1` [Compound 2y, 1-(4-chloro-3-(trifluoromethyl)phenyl)-3-((1-(4-(trifluoromethyl)phenyl)-1H-1,2,3-triazol-4-yl)methyl)urea], the melting point was in the range of 199 to 200 °C. For the same compound, in data set [1], the “SI (MOLT-3)” value was determined as 3.23 and the IC50 stood at 18.1 ± 0.45 µM. Further, in data set [2], the “SI (HL-60)” value is on record as 3.02 and the 50% inhibitory concentration (IC50) stood at 19.4 ± 0.5 µM. Moreover, in data set [3], the “Selectivity index (SI)” value is listed as 9.81 and the IC50 is 5.97 ± 2.14 µM. Further, the IC50 at 48 h in data set [4] came out at 58.6 ± 3.51 µM.
Turning to `O=C(NCc1cn(-c2ccccc2F)nn1)Nc1ccc(Cl)c(C(F)(F)F)c1` [Compound 2b], the IC50 in data set [1] worked out at 25.3 ± 1.38 µM; in data set [5], 77.3 ± 1.76 µM; in data set [6], 69.2 ± 19.2 µM; in data set [2], 40.6 ± 4.64 µM. In addition, in data set [4], the IC50 at 48 h was determined as 73.5 ± 9.14 µM.
`O=C(NCc1cn(-c2ccccc2C(F)(F)F)nn1)Nc1ccc(Cl)c(C(F)(F)F)c1` [Compound 2w]: the IC50 in data set [1] turned out to be 30.6 ± 0.8 µM; in data set [2], 34.5 ± 0.73 µM. The IC50 at 48 h in data set [4] was 58.8 ± 0.39 µM.
As for `O=C(NCc1cn(-c2ccc(I)cc2)nn1)Nc1ccc(Cl)c(C(F)(F)F)c1` [Compound 2m], the IC50 in data set [1] stood at 29.9 ± 1.51 µM; in data set [2], 49.8 ± 7.19 µM. The same compound gave an IC50 at 48 h in data set [4] of 49.9 ± 6.61 µM.
In data set [2], `O=C(NCc1cn(-c2ccccc2I)nn1)Nc1ccc(Cl)c(C(F)(F)F)c1` [Compound 2k] returned an IC50 of 37.4 ± 2.36 µM. Further, 49.1 ± 2.95 µM corresponded to half-maximal inhibition in data set [4] (IC50 at 48 h).
Regarding `Cc1ccc(-n2cc(CNC(=O)Nc3ccc(Cl)c(C(F)(F)F)c3)nn2)cc1` [Compound 2v], the values for the concentration for half-maximal inhibition (IC50) in data set [1] and in data set [2] were 91.1 ± 1.66 µM and greater than 100 µM, respectively. In data set [4], this compound showed an IC50 at 48 h of 99.9 ± 0.9 µM.
As to `N#Cc1ccccc1-n1cc(CNC(=O)Nc2ccc(Cl)c(C(F)(F)F)c2)nn1` [Compound 2z, 1-(4-chloro-3-(trifluoromethyl)phenyl)-3-((1-(2-cyanophenyl)-1H-1,2,3-triazol-4-yl)methyl)urea], the melting point fell in the range of 162 to 163 °C. In data set [2], the “SI (HL-60)” value is 1.06 and the IC50 amounted to 56.4 ± 10.9 µM. In addition, the “Cytotoxicity HepG2 Cell Viability at 25 µM” value in data set [3] is given as 66%. The compound also registered an IC50 at 48 h in data set [4] of 59.7 ± 6.63 µM.
Regarding `COc1ccc(-n2cc(CNC(=O)Nc3ccc(Cl)c(C(F)(F)F)c3)nn2)cc1` [Compound 2s], the IC50 in data set [2] is greater than 100 µM. Further, the IC50 at 48 h in data set [4] turned out to be 21.2 ± 2.51 µM.
For `O=C(NCc1cn(-c2ccc(Cl)cc2)nn1)Nc1ccc(Cl)c(C(F)(F)F)c1` [Compound 2g], the IC50 was greater than 100 µM in data set [1], 83 ± 2.7 µM in data set [5], 33.6 ± 1.83 µM in data set [6] and greater than 100 µM in data set [2]. This compound also gave an IC50 at 48 h in data set [4] of 14.6 ± 4.17 µM.
On to `O=C(NCc1cn(-c2ccc(Br)cc2)nn1)Nc1ccc(Cl)c(C(F)(F)F)c1` [Compound 2j], for which the IC50 turned out to be 53.4 ± 24.3 µM in data set [1], 33.8 ± 2.29 µM in data set [5], 10.8 ± 0.36 µM in data set [6] and 76 ± 22.6 µM in data set [2]. The compound further yielded an IC50 at 48 h in data set [4] of 60.7 ± 1.88 µM.
As to `O=C(NCc1cn(-c2ccc(O)cc2)nn1)Nc1ccc(Cl)c(C(F)(F)F)c1` [Compound 2p], the IC50 in data set [1] was found to be 22.5 ± 1.85 µM; in data set [5], 85.9 ± 7.24 µM; in data set [6] it was 87.43 ± 0.79 µM; in data set [2] it was 32.9 ± 7.77 µM. The IC50 at 48 h in data set [4] worked out at 69.6 ± 5.66 µM.
In data set [2], `COc1ccccc1-n1cc(CNC(=O)Nc2ccc(Cl)c(C(F)(F)F)c2)nn1` [Compound 2q] showed an IC50 of 42.4 ± 2.18 µM. In addition, the 50% inhibitory concentration (IC50) at 48 h in data set [4] is 68 ± 5.14 µM.
For `Cc1cccc(-n2cc(CNC(=O)Nc3ccc(Cl)c(C(F)(F)F)c3)nn2)c1` [Compound 2u], in data set [2], the half-maximal inhibitory concentration (IC50) is greater than 100 µM.
Compound `CC(=O)Nc1ccc(-n2cc(CNC(=O)Nc3ccc(Cl)c(C(F)(F)F)c3)nn2)cc1` [Compound 2u, N-(4-(4-((3-(4-chloro-3-(trifluoromethyl)phenyl)ureido)methyl)-1H-1,2,3-triazol-1-yl)phenyl)acetamide] yielded a melting point of 238 to 239 °C.
Regarding `O=C(NCc1cn(-c2ccc(F)cc2)nn1)Nc1ccc(Cl)c(C(F)(F)F)c1` [Compound 2d], the concentration for half-maximal inhibition (IC50) was found to be 20.5 ± 1.23 µM in data set [1], 57.4 ± 8.36 µM in data set [5], 55.4 ± 6.49 µM in data set [6] and 35 ± 9.04 µM in data set [2]. In data set [4], this compound returned an IC50 at 48 h of 59.3 ± 1.96 µM.
The compound `O=C(NCc1cn(-c2cccc(Br)c2)nn1)Nc1ccc(Cl)c(C(F)(F)F)c1` [Compound 2i] returned an IC50 in data set [2] of 35.75 ± 0.34 µM. Also, the IC50 at 48 h in data set [4] stood at 53 ± 3.31 µM.
Regarding `O=C(NCc1cn(-c2ccccc2)nn1)Nc1ccc(Cl)c(C(F)(F)F)c1` [Compound 2a], the IC50 in data set [1], in data set [5], in data set [6] and in data set [2] was greater than 100 µM in each case. For the same compound, the half-maximal inhibitory concentration (IC50) at 48 h in data set [4] is greater than 100 µM.
`O=C(NCc1cn(-c2ccccc2F)nn1)Nc1ccc(Cl)c(C(F)(F)F)c1` [Compound 2b, 1-(4-chloro-3-(trifluoromethyl)phenyl)-3-((1-(2-fluorophenyl)-1H-1,2,3-triazol-4-yl)methyl)urea] showed a melting point of 168 to 169 °C.
In data set [2], `O=C(NCc1cn(-c2cccc(Cl)c2)nn1)Nc1ccc(Cl)c(C(F)(F)F)c1` [Compound 2f] returned a half-inhibitory concentration (IC50) of 37.5 ± 2.23 µM. In data set [4], this compound returned an IC50 at 48 h of 63.8 ± 3.53 µM.
With `Cc1ccccc1-n1cc(CNC(=O)Nc2ccc(Cl)c(C(F)(F)F)c2)nn1` [Compound 2t], half-maximal inhibition in data set [2] (IC50) was put at 45 ± 4.03 µM. In data set [4], the concentration for half-maximal inhibition (IC50) at 48 h worked out at 61.7 ± 3.22 µM.
Regarding `COc1cccc(-n2cc(CNC(=O)Nc3ccc(Cl)c(C(F)(F)F)c3)nn2)c1` [Compound 2r], the concentration for half-maximal inhibition (IC50) in data set [2] was 42.8 ± 1.95 µM. In addition, the midpoint of inhibition in data set [4], the IC50 at 48 h, lay at 76.1 ± 9.18 µM.
In the case of `COc1cccc2c1C(=O)c1c(O)c3c(c(O)c1C2=O)C[C@@](O)(C(=O)CO)C[C@@H]3O[C@H]1C[C@H](N)[C@H](O)[C@H](C)O1` [Doxorubicin, reference compound], the “SI (MOLT-3)” value in data set [1] is 226. Further, the IC50 in data set [1] is 0.01 µM; in data set [5], 0.47 ± 0.02 µM; in data set [6], 1.21 ± 0.04 µM; in data set [2], 0.12 ± 0.02 µM; in data set [3], 0.59 ± 0.1 µM. In addition, in data set [5] ((IC50 for MRC-5)/(IC50 for A549)), the “SI (A549)” value is reported as 4.81. Further, the “SI (HuCCA-1)” value in data set [6] ((IC50 for MRC-5)/(IC50 for HuCCA-1)) was 1.87. For the same compound, in data set [2], the “SI (HL-60)” value stood at 18.83. In data set [3], the “Selectivity index (SI)” value was found to be 3.83. For the same compound, the IC50 at 48 h in data set [4] was 2.26 µM.
For the compound `O=C(NCc1cn(-c2cccc(I)c2)nn1)Nc1ccc(Cl)c(C(F)(F)F)c1` [Compound 2l], the IC50 in data set [2] worked out at 33.2 ± 0.58 µM. In addition, it took 49.2 ± 2.13 µM to reach half-maximal inhibition in data set [4] (IC50 at 48 h).
Regarding `O=C(NCc1cn(-c2ccccc2Br)nn1)Nc1ccc(Cl)c(C(F)(F)F)c1` [Compound 2h], it took 37.7 ± 3.88 µM to reach half-maximal inhibition in data set [2] (IC50). In data set [4], this compound displayed an IC50 at 48 h of 52.9 ± 3.1 µM.
Regarding `O=C(NCc1cn(-c2ccccc2Cl)nn1)Nc1ccc(Cl)c(C(F)(F)F)c1` [Compound 2e], the midpoint of inhibition in data set [2], the IC50, lay at 52.1 ± 13.9 µM. The compound also came in with an IC50 at 48 h in data set [4] of 61.4 ± 3.51 µM.
